The source of these data is a melting point compilation (Tetko et al.; mined from patent text by program, amines drawn as free bases though some values may be those of a salt).

Where only a bound is given, the exact number is not on record here.

The term melting point denotes the temperature, or range, at which the solid turns liquid. In turn, `CC(CN(C)C)N1c2ccccc2Sc2ccc(C(=O)NCC3CC3)cc21` (racemic) yielded a melting point of 90 °C.
For the compound `COC(=O)c1cc2c(nc1C)C(COC(=O)Oc1ccc([N+](=O)[O-])cc1)CCCC2` (stereo not drawn), the melting point lay within 116 to 117 °C.
Then `COCCc1nc2c(N)nc3cc(Br)cnc3c2n1CC(C)(C)O`, with 210 to 211 °C; and `COc1ccc(C(=O)c2ccc(OCc3nc(-c4ccccc4)oc3C)nc2)c(O)c1`, with 137 to 138 °C; and `Cc1cc(CC(=O)O)n(C)c1C(=O)c1ccc(F)cc1`, with 176 to 178 °C.
In the case of `CC12CCC(=O)CC1CCC1C2CCC2(C)C(O)C(N=[N+]=[N-])CC12` (stereo not drawn), the melting point is 165 to 167 °C.
Compound `O=CC=Cc1ccc(O)c(O)c1` had a melting point of 200 to 202 °C.
In turn, `Cn1cncc1C(N)(c1ccc(Cl)cc1)c1ccc2c(c1)c(-c1cccc(Cl)c1)nc1nnnn12` (stereo not drawn) registered a melting point of 159 °C.
Then `O=C(O)N[C@@H](CC1CCCCC1)[C@@H](O)[C@@H]1CCCS1`, with 118 to 119 °C; and `CN1C(=O)N(CC(COc2ccc(-c3ccncc3)cc2)N(O)C=O)C(=O)C1(C)C` (stereo not drawn), with 217 to 218 °C; and `COC(=O)C1=C2Nc3ccccc3C23CCNC3CC1` (stereo not drawn), with 145 to 148 °C.
In turn, `O=C1c2ccccc2C(=O)c2sc(-c3ccoc3)nc21` registered a melting point of 245 °C.
Compound `COc1ccccc1-c1cc(F)cc2c1O[C@@H](CN)CC2` came in with a melting point of 100 °C.
As to `COC(=O)C(=O)C12CC3CC(CC(O)(C3)C1)C2`, the melting point lay within 164 to 166 °C.
As for `CCOc1ccc(Cn2cnc3c(-c4ccco4)ncnc32)cc1`, the figure is 165 to 166 °C.
The compound `Cn1c(C(=O)NC2CCCCC2)nc(-c2ccc(Cl)cc2Cl)c1-c1ccc(Cl)cc1` gave a melting point of 165 °C.
Take `O=C(NCc1ccc(Cl)c(Cl)c1)Nc1cccc2[nH]ccc12`: the melting point was found to be 201 °C.
In turn, `c1ccc2c(=Nc3ccncc3)cc3oc4cc(N5CCCCC5)ccc4nc-3c2c1` returned a melting point of 267 to 268 °C.
Then `CCCCNS(=O)(=O)c1cc(C(=O)CCl)ccc1Cl`, with 89 °C.
The compound `O=[N+]([O-])c1cc(Cn2ccnc2)ccc1NC1CCCCC1` displayed a melting point of 121 °C.
Compound `CNS(=O)(=O)c1ccc(Nc2cc(-n3ccc(C(F)(F)F)n3)c3ccccc3n2)cc1` had a melting point of 220 to 222 °C.
Compound `CCc1csc(-n2cc(C)cc2-c2ccc(S(N)(=O)=O)cc2)c1` came in with a melting point of 139 to 141 °C.
Take `C#Cc1cccc(Nc2ncnc3ccc(S(=O)(=O)n4ccc(C=CC(=O)OCC)c4)cc23)c1`: the melting point is 154 to 156 °C.
Consider `COC(=O)N=P(c1ccccc1)(c1ccccc1)c1ccccc1CN(C)C`, for which the melting point fell in the range of 95 to 97 °C.
The compound `O=C1NCCCCC1Br` (stereo not drawn) displayed a melting point of 109 to 111 °C.
Take `Cc1cc(CC(C)(C)NCC(O)c2cc(OCc3ccccc3)cc3c2OCC(=O)N3)ccc1F` (stereo not drawn): the melting point was in the range of 228 to 230 °C.
As to `COC(=O)C1N2C(=O)C(NC(=O)COc3ccccc3)C2SCC1(C)Nc1ccccc1` (stereo not drawn), the melting point was 129 to 130 °C.
`COc1ccc(Cl)cc1C1C(=O)Nc2cc(C(F)(F)F)ccc21` (stereo not drawn): the melting point is 210 to 213 °C.
As for `CN(CC(=O)NO)S(=O)(=O)Cc1cccc(C(F)(F)F)c1`, the melting point lay within 128 to 129 °C.
Then `CCOC(=O)COc1ccc([N+](=O)[O-])cc1`, with 75 to 76 °C.
Compound `CC(O)=C1C(=O)CC(c2ccccc2Cl)CC1=O` (stereo not drawn) yielded a melting point of 100 to 101 °C.
In the case of `Fc1ccc(Cn2c(NC3CCN(CCc4ccccc4)CC3)nc3ccc(F)cc32)cc1`, the melting point was found to be 178 °C.
For `COc1ccc(-c2cccc(C=CC(=O)Nc3ccc(CN4CCCCC4)cc3)c2)cc1`, the melting point lay in the range of 150 to 151 °C.
Compound `COC(=O)C(=C(/C)c1cc(OC)cc(OC)c1)/C(=C\c1ccccc1)C(=O)NN1CCN(C)CC1` displayed a melting point of 117 to 121 °C.
`CC1(CF)C(=O)N(c2ccc(C#N)c(C(F)(F)F)c2)C(=O)N1CC#N` (stereo not drawn) showed a melting point of 175 °C.
As for `CC(C)(C)c1cc(-c2nnc(C(N)=S)s2)cc(C(C)(C)C)c1O`, the melting point fell in the range of 215 to 216 °C.
Take `CC(=O)Nc1c(C(=O)c2cc(C)ccn2)[nH]c2cc(Cl)ccc12`: the melting point was 187 to 188 °C.
In turn, `O=C(Nc1ccc(CN2C(=O)[C@H]3CCC[C@H]3N(C(=O)CN3C(=O)c4ccccc4C3=O)c3ccccc32)cc1)c1ccccc1F` (relative stereo) gave a melting point of 238 to 240 °C.
`Cc1oc(-c2ccccc2)nc1CCNCc1ccc(C[C@@H](C(=O)O)n2cccc2)cc1` returned a melting point of 208 to 210 °C.
Then `Cc1c(O)ccc2c(-c3ccccc3F)noc12`, with 216 to 219 °C; and `Nc1ccccc1-c1nc2cccnc2o1`, with 142 to 144 °C.
As for `COc1cccc(C(=O)P2(=O)Oc3ccccc3-c3ccccc32)c1` (stereo not drawn), the figure is 116 to 118 °C; as for `O=[N+]([O-])C=C(NCCCOc1cccc(CN2CCCCC2)c1)NCC(O)c1ccc(F)cc1` (stereo not drawn), 135 to 136 °C.
Then `CC(C)(C)OC(=O)N1Cc2c(Cl)sc(Cl)c2C1`, with 112 to 114 °C; and `CCOC(=O)CCc1cc(O)ccc1-c1ccc(-c2cccnc2)c(CO)c1`, with 46 to 48 °C.
In the case of `CO[C@@H]1CC[C@@H](NC(N)=O)c2ccccc21` (relative stereo), the melting point lay in the range of 159 to 165 °C.
On to `CCNC(=O)c1c([Si](C)(C)C)sc2c1CCCC2`, for which the melting point was 107 to 112 °C.
With `C(#Cc1ccc(C2=CC(c3ccc(C#Cc4ccccc4)cc3)N(c3ccccc3)N2)cc1)c1ccccc1` (stereo not drawn), the melting point was in the range of 200 to 204 °C.
As to `O=C1NC(C(=O)NCCO[N+](=O)[O-])C(c2cccs2)O1` (stereo not drawn), the melting point lay in the range of 101 to 103 °C.
As to `COc1cccc(Oc2ccc([C@@H]3CCCN4CCS(=O)(=O)N=C34)cc2)c1`, the melting point was 139 to 140 °C.
Compound `CCC(COC)(OC)c1cccc(OCOC)c1` (stereo not drawn) came in with a melting point of 74 to 75 °C.
Consider `N#CC#Cc1ccc(O)cc1`, for which the melting point lay within 134 to 137 °C.
For the compound `COc1cc(Nc2c(C#N)cnc3cc4cc(OCCN5CCOCC5)c(OC)cc4cc23)c(Cl)cc1F`, the melting point was in the range of 206 to 222 °C.
As for `COc1cnc(CSc2nc3cc(OC(F)(F)F)ccc3[nH]2)cc1OC`, the figure is 92 to 93 °C; as for `COc1ccc(C(=O)/C=C/c2c(-c3ccc(F)cc3)nc3sccn23)cc1OC`, 221 to 223 °C; as for `c1ccc(Cc2cnc(N3CCN(c4ncnc5ccccc45)CC3)nc2)cc1`, > 250 °C.
Then `CC1(C)N=C(NC(=O)c2ccco2)N=C(NC(=O)c2ccco2)N1OCc1cccc2ccccc12`, with 173 to 177 °C; and `Cc1ccc(-c2ccc3c(=O)ccoc3c2)cc1`, with 159 to 160 °C; and `CCOC(=O)NCc1cccc2c1C(=O)N(C1CCC(=O)NC1=O)C2=O` (stereo not drawn), with 187 to 189 °C.
Compound `Cn1cc(-c2ccc(C(=O)N3Cc4cccn4Cc4ccccc43)cc2)cn1` returned a melting point of 200 to 201 °C.
Then `Cc1cccc(-c2nc(NC(=O)c3ccc(Cl)nc3)sc2-c2ccnc(NC3CCCC3)c2)c1`, with 211 to 212 °C; and `CCNc1nc(Cl)nc2nc[nH]c12`, with 237 to 239 °C.
As for `C=CC1(CC)OC(=O)c2ccc(Oc3ccc(C(F)(F)F)cc3Cl)cc21` (stereo not drawn), the melting point lay within 77 to 79 °C.
As to `CC(C)(C)C(O)Cn1c(-c2ccccc2[N+](=O)[O-])nc2ccccc21` (stereo not drawn), the melting point was 192 to 193 °C.
`CN1CCCC1=Cc1ccc([N+](=O)[O-])cc1[N+](=O)[O-]` showed a melting point of 188 to 190 °C.
Take `CCNC(=O)NSC(=S)N(C)C`: the melting point lay within 173 to 175 °C.
With `COc1ccc(OCc2ccccc2)cc1C=O`, the melting point is 99 to 100 °C.
Turning to `CC(=O)NC[C@H]1CN(c2ccc(N3CCC(=CC#N)C(C)(C)C3)c(F)c2)C(=O)O1`, the melting point was 150 to 152 °C.
As for `CCOC(=O)NC1Cc2ccccc2C1Nc1ccccc1CO` (stereo not drawn), the figure is 115 to 117 °C.
`CC(=O)N(Cc1ccc(C[C@@H](C(=O)O)n2cccc2)cc1)Cc1nc(-c2ccccc2)oc1C` yielded a melting point of 97 to 100 °C.
In turn, `CCCNC(=O)n1nc(Oc2c(Cl)cc(C(F)(F)F)cc2[N+](=O)[O-])cc1C` registered a melting point of 111 to 113 °C.
Consider `COC(=O)NN=Cc1cnc2ccccc2n1`, for which the melting point is 242 to 244 °C.
Compound `Cc1ccc(S(=O)(=O)c2ncccc2NC(=O)N[C@@H](Cc2ccc(NC(=O)c3c(Cl)cccc3Cl)cc2)C(=O)O)cc1` showed a melting point of 180 °C.
`COc1cc(CO)ncc1C`: the melting point lay within 102 to 104 °C.
Compound `Cc1ccc(-c2ccc(S(C)(=O)=O)cc2)n1-c1ccc(-c2ccco2)cc1` showed a melting point of 145 to 147 °C.
Compound `COc1cn(C(C)C(=O)N(C)C)nc1-c1ccccc1` (stereo not drawn) returned a melting point of 96.5 to 98 °C.
`CC(C)(C)c1cc(CNC2CCCCC2)c(O)c(C(C)(C)C)c1` came in with a melting point of 67 to 70 °C.
In the case of `COCN1CC(CN)c2c[nH]c3cccc(c23)C1=O` (stereo not drawn), the melting point lay within 160 to 163 °C.
Compound `Cc1cn(C(C)C(=O)N(C)C)nc1-c1ccc(Cl)s1` (stereo not drawn) gave a melting point of 112 to 114 °C.
In turn, `O=P(O)(O)Cc1cc(C(F)(F)F)cc(C(F)(F)F)c1` gave a melting point of 206 to 208 °C.
`CC(C)(C)OC(=O)n1cnc2c(N)cccc21` registered a melting point of 117 °C.
Then `Cc1nn(C)c2c1c1oc(=O)c(Sc3ccccc3)c(O)c1c(=O)n2Cc1ccc(F)cc1`, with 159 to 160 °C; and `Cc1cc(C2=NN(C3=NNC(=O)CS3)[C@H](C)Cc3cc4c(cc32)OCO4)ccc1[N+](=O)[O-]`, with 207 to 211 °C.
As for `CCCCCc1c(/C=C/C(=O)O)oc2cc(OC)ccc12`, the figure is 146 to 147 °C; as for `CC(C)(C)c1ccc2c(c1)c(Sc1ccccc1)c(CC(=O)O)n2Cc1ccc(Cl)cc1`, 148 to 150 °C; as for `C=CCN1Cc2nc3c(cnn3CCC#CC)c(N)c2C1=O`, 192 to 194 °C.
Regarding `O=C(Nc1c[nH]nc1C(=O)NCC(F)(F)F)c1ccccc1`, the melting point lay within 203 to 206 °C.
Consider `CCc1nc2c(cnn2CC)c(NC2CCOCC2)c1CNC(=O)c1cc(C)cc(C(=O)NCc2cccc(-c3cccc(C=O)c3)c2)c1`, for which the melting point was 109 to 112 °C.
